Here are results for 10 molecules from article PMC10053807, “Natural Lipid Extracts as an Artificial Membrane for Drug Permeability Assay: In Vitro and In Silico Characterization” (Pharmaceutics, 2023).

Where only a bound is given, the exact number is not on record here.

Data set [1] in a line: PAMPA permeability, liver total lipid extract (LTLE) membrane. The note with it: for Mean logPe / Mean Pe: Liver total lipid extract membrane, n=3; for Papp at 4 h, 100 μM: bovine, PAMPA, pH 7.4; for Mean Pe: * = not detected at acceptor side, value calculated from limit of detection.
A short description of data set [2]: PAMPA permeability, heart polar lipid extract (HPLE) membrane. As to conditions: for Papp at 4 h, 100 μM: bovine, PAMPA, pH 7.4.
A short description of data set [3]: PAMPA permeability, liver polar lipid extract (LPLE) membrane. The note with it: for Papp at 4 h, 100 μM: bovine, PAMPA. For orientation: PAMPA measures passive passage across an artificial lipid membrane.
Data set [4] is described as follows: PAMPA permeability, brain total lipid extract (BTLE) membrane. The note with it: for Mean logPe / Mean Pe: Brain total lipid extract membrane, n=3; for Papp at 4 h, 100 μM: pig, PAMPA, pH 7.4; for Mean Pe: * = not detected at acceptor side, value calculated from limit of detection.
The nature of data set [5]: PAMPA permeability, heart total lipid extract (HTLE) membrane. As to conditions: for Papp at 4 h, 100 μM: bovine, PAMPA; for PAMPA permeability on HTLE: pH 7.4, 4 h, 37 °C, in words (PCA biplot, Figure 11B).
Data set [6] can be described thus: PAMPA permeability, brain polar lipid extract (BPLE) membrane. The note with it: for Papp at 4 h, 100 μM: pig, PAMPA.
Data set [7] can be described thus: PAMPA permeability, comparison across the six natural lipid extract membranes. The note with it: for dependence of permeability on the lipid extract (PCA biplot): compounds near the abscissa of the PCA biplot, Figure 12; for total-polar permeability comparison: heart, liver and brain extracts, Figure 10A–C.
Another data set is described as follows: in vitro. As to conditions: bovine, PAMPA, pH 7.4.
[8] abbreviates: Heart Polar lipid extract membrane, n=3.
[9] abbreviates: pH 7.4, Mean Pe, n=3, * = not detected at acceptor side, value calculated from limit of detection.
[10] abbreviates: Heart total lipid extract membrane, n=3.
Where [11] appears, read: pH 7.4, Mean Pe, Heart total lipid extract membrane, n=3, * = not detected at acceptor side, value calculated from limit of detection.
Where [12] appears, read: Brain Polar lipid extract membrane, n=3.

On to `CC(C)Cc1ccc(C(C)C(=O)O)cc1` (stereo not drawn) [ibuprofen], for which the “Mean logPe” value in data set [1] is recorded as -4.54; in data set [2] (setting [8]), -4.62; in data set [3] (n=3), -4.61; in data set [4], -5.05; in data set [5] (setting [10]), -4.76; in data set [6] (setting [12]) it was -5.12. For the same molecule, the Papp (as a rule, the rate of passage across a membrane or cell layer, normalised by area and donor concentration) at 4 h, 100 μM is 290 nm/s in data set [1]; 242 nm/s in data set [2]; 251 nm/s in data set [3] (setting [9]); 89.7 nm/s in data set [4]; 173 nm/s in data set [5] (setting [11]); 76.4 nm/s in data set [6] (pH 7.4). In data set [7], the “dependence of permeability on the lipid extract (PCA biplot)” value (“dependence of permeability” below) is recorded as “independent of the investigated lipids”.

For `O=C1NC(=O)C(c2ccccc2)(c2ccccc2)N1` [phenytoin], the “Mean logPe” value is on record as -4.35 in data set [1]; -4.42 in data set [2] (setting [8]); -4.46 in data set [3] (n=3); -4.46 in data set [4]; -4.84 in data set [5] (setting [10]); -4.57 in data set [6] (setting [12]). In addition, the Papp at 4 h, 100 μM was 447 nm/s in data set [1]; 384 nm/s in data set [2]; 346 nm/s in data set [3] (setting [9]); 353 nm/s in data set [4]; 147 nm/s in data set [5] (setting [11]); 272 nm/s in data set [6] (pH 7.4). The “dependence of permeability” value in data set [7] is given as “independent of the investigated lipids”.

In the case of `Cc1c(OCC(F)(F)F)ccnc1C[S+]([O-])c1nc2ccccc2[nH]1` (stereo not drawn) [lansoprazole], the “Mean logPe” value is listed as -4.21 in data set [1]; -4.74 in data set [2] (setting [8]); -4.62 in data set [3] (n=3); -4.54 in data set [4]; -4.67 in data set [5] (setting [10]); -4.58 in data set [6] (setting [12]). In addition, the Papp at 4 h, 100 μM in data set [1] was 619 nm/s; in data set [2], 180 nm/s; in data set [3] (setting [9]), 244 nm/s; in data set [4], 286 nm/s; in data set [5] (setting [11]), 219 nm/s; in data set [6] (pH 7.4), 266 nm/s. In addition, the “dependence of permeability” value in data set [7] is recorded as “independent of the investigated lipids”.

As to `CCCCOc1cc(C(=O)NCCN(CC)CC)c2ccccc2n1` [dibucaine], the “Mean logPe” value in data set [1] is recorded as -4.56; in data set [2] (setting [8]) it was -4.31; in data set [3] (n=3) it was -4.40; in data set [4], -4.40; in data set [5] (setting [10]) it was -4.44; in data set [6] (setting [12]), -4.19. Also, the Papp at 4 h, 100 μM in data set [1] was 286 nm/s; in data set [2], 486 nm/s; in data set [3] (setting [9]) it was 399 nm/s; in data set [5] (setting [11]) it was 373 nm/s; in data set [6] (pH 7.4) it was 650 nm/s. For the same molecule, the “Mean Pe” value in data set [4] is 40.24 10-6 cm/s. Besides, in data set [5], the “PAMPA permeability on HTLE” value is listed as “high permeability”. For the same molecule, in data set [7], the total-polar permeability comparison entry was “higher permeability in polar lipids”.

Regarding `COc1ccc2c(c1)N(C[C@H](C)CN(C)C)c1ccccc1S2` [levomepromazine], in data set [1], the “Mean Pe” value was < 3,7* 10-6 cm/s. Further, the Papp at 4 h, 100 μM in data set [1] is below 37.2 nm/s; in data set [2] it was 65.7 nm/s; in data set [3] (setting [9]), 285 nm/s; in data set [3] (pH 7.4, Mean logPe, n=3) it was 234 nm/s; in data set [4] it was 158 nm/s; in data set [5] (setting [11]), 132 nm/s. This molecule registered an apparent permeability coefficient (Papp) at 4 h, 100 μM in data set [6] (pH 7.4) of 151 nm/s. Besides, the “Mean logPe” value in data set [2] (setting [8]) is on record as -5.20; in data set [4] it was -4.89; in data set [5] (setting [10]), -4.90; in data set [6] (setting [12]) it was -4.83. In addition, the total-polar permeability comparison entry in data set [7] is “heart total-liver polar”.

With `CC(=O)CC(c1ccccc1)c1c(O)c2ccccc2oc1=O` (stereo not drawn) [warfarin], the “Mean logPe” value is listed as -4.86 in data set [1], -5.50 in data set [2] (setting [8]), -5.14 in data set [3] (n=3) and -5.62 in data set [4]. For the same molecule, the Papp at 4 h, 100 μM in data set [1] is 139 nm/s; in “in vitro”, 8.91 nm/s; in data set [2], 32.5 nm/s; in data set [3] (setting [9]), 74.8 nm/s; in data set [4], 24.3 nm/s; in data set [5] (setting [11]) it was 2.9 nm/s. In addition, the Papp at 4 h, 100 μM in data set [6] (pH 7.4) was 4.7 nm/s; in data set [6] (pH 7.4, Mean logPe, Brain Polar lipid extract membrane, n=3), 14.1 nm/s. Moreover, the “PAMPA permeability on HTLE” value in data set [5] is “low”.

For `O=C1CN=C(c2ccccc2)c2cc([N+](=O)[O-])ccc2N1` [nitrazepam], the “Mean logPe” value in data set [1] is reported as -4.26; in data set [2] (setting [8]), -4.54; in data set [3] (n=3) it was -4.60; in data set [4], -4.47; in data set [5] (setting [10]) it was -4.46; in data set [6] (setting [12]) it was -4.67. The Papp at 4 h, 100 μM worked out at 341 nm/s in data set [4] and 215 nm/s in data set [6] (pH 7.4). Also, in data set [7], the total-polar permeability comparison entry is reported as “higher permeability in total lipids”.

With `CC(C)C(=O)Nc1ccc([N+](=O)[O-])c(C(F)(F)F)c1` [flutamide], the “Mean logPe” value is -4.32 in data set [1]; -4.30 in data set [2] (setting [8]); -4.54 in data set [3] (n=3); -4.45 in data set [4]; -4.40 in data set [5] (setting [10]); -4.24 in data set [6] (setting [12]). In addition, the Papp at 4 h, 100 μM in data set [1] was 478 nm/s; in data set [2] it was 503 nm/s; in data set [3] (setting [9]), 294 nm/s; in data set [4], 355 nm/s; in data set [5] (setting [11]), 418 nm/s; in data set [6] (pH 7.4) it was 581 nm/s. The “PAMPA permeability on HTLE” value in data set [5] is “high permeability”. In addition, in data set [7] (BTLE vs BPLE), the “total-polar permeability comparison, brain extracts” value is “higher in the brain polar extract”. Besides, the “total-polar permeability comparison, liver extracts” value in data set [7] (LTLE vs LPLE) is on record as “higher in the liver total extract”.

On to `CC(C)c1nc(N(C)S(C)(=O)=O)nc(-c2ccc(F)cc2)c1/C=C/[C@@H](O)C[C@@H](O)CC(=O)O` [rosuvastatin], for which the “Mean logPe” value in data set [1] is below -6.32; in data set [3] (n=3) it was below -6.32; in data set [4], below -6.33; in data set [6] (setting [12]), below -6.32. Also, the “Mean Pe” value is < 0,48* 10-6 cm/s in data set [1]; < 0,46* 10-6 cm/s in data set [2] (Heart Polar lipid extract membrane, n=3, * = not detected at acceptor side, value calculated from limit of detection); < 0,48* 10-6 cm/s in data set [3] (n=3, * = not detected at acceptor side, value calculated from limit of detection); < 0,46* 10-6 cm/s in data set [4]; < 0,48* 10-6 cm/s in data set [5] (Heart total lipid extract membrane, n=3, * = not detected at acceptor side, value calculated from limit of detection); < 0,48* 10-6 cm/s in data set [6] (Brain Polar lipid extract membrane, n=3, * = not detected at acceptor side, value calculated from limit of detection). In addition, the Papp at 4 h, 100 μM in data set [2] was below 4.68 nm/s; in data set [5] (pH 7.4, Mean logPe, Heart total lipid extract membrane, n=3), below 4.79 nm/s.

As for `O=C1CC2(CCCC2)CC(=O)N1CCCCN1CCN(c2ncccn2)CC1` [buspirone], in data set [3] (setting [9]), the Papp at 4 h, 100 μM was 570 nm/s. Also, the total-polar permeability comparison entry in data set [7] is “higher permeability in polar lipids”.
